Assay results: paper PMC5841303, “In silico screening for human norovirus antivirals reveals a novel non-nucleoside inhibitor of the viral polymerase” (Scientific Reports, 2018)
pIC50: −log10 of the molar value. Where two headings read alike, the source gives them in different places.

Tests used:
[1] = target: human norovirus Sydney 2012 RdRp (Norovirus GII.4 (Norwalk virus, human norovirus), UniProt K4L8Z7); test: Fluorescent de novo RdRp activity assay (PicoGreen, poly(C) template); assay type: biochemical; conditions: for inhibition at 100 µM: read-out: inhibition of human norovirus RdRp activity, 100 µM
Protocol: The 62 compounds identified in silico were screened for inhibition of norovirus RdRp activity using an in vitro fluorescent, de novo RdRp assay. Compounds were tested at fixed concentrations of 10 µM and 100 µM, and compared to mock treated samples containing the vehicle only (0.5% DMSO [vol/vol]) (Fig. 4A,B). […] For certain compounds, significant insolubility was observed, coupled with either inherent fluorescence quenching (positive y-axis values on Fig. 4A,B) or enhancement of the fluorescence signal (negative y-axis values).
The newly synthesised compounds, including the re-prepared hit 13 and some synthesis intermediates (Table 1), were initially evaluated on norovirus Sydney 2012 RdRp activity in vitro using a quantitative fluorescent assay. Compounds were tested at a fixed concentration of 10 μM and compared to the relative activity of mock treated samples.
Recombinant calicivirus RdRps (GenBank accession numbers) norovirus GII.Pe/GII.4 Sydney 2012 (KT239579), MNV GV CW1 (DQ285629), RHDV Czech V351 (KF594473.1), and SaV GI.1 Mc114 (AY237422) were expressed and purified as described previously[60],[61]. RdRp resistance mutants were generated using the QuikChange site-directed mutagenesis kit (Agilent Technologies, Santa Clara, CA, USA) and confirmed by Sanger sequencing.
(§1) Fluorescent RdRp activity assays were carried out as previously described[14],[62]. Briefly, RdRp activity was quantified by monitoring the formation of double-stranded RNA (dsRNA) from a single stranded homopolymeric template, poly(C) (Sigma Aldrich, St Louis, MO, USA), using the fluorescent dye PicoGreen (Life Technologies, Carlsbad, CA, USA). RdRp assays were performed in 384-well plates, and each reaction mixture contained 400 ng enzyme, 45 µM GTP, 10 ng/µL poly(C) RNA, 2.5 mM MnCl2, 5 mM dithiothreitol, (DTT), 0.01% bovine serum albumin (BSA), and 0.005% Tween 20 in 20 mM Tris-HCl, pH 7.5, with a final reaction volume of 25 µL. The previous published norovirus NNI NIC02 was used as a positive control. RdRps were incubated for 10 mins at 30 °C in the presence of the test compounds or the compound vehicle DMSO (0.5% vol/vol) before addition into the reaction mixture, which was then allowed to run 15 min at 30 °C then terminated with 10 mM EDTA, followed by PicoGreen staining and dsRNA quantitation. GraphPad Prism V6.05 (La Jolla, CA, USA) was used to plot the IC50 values. In cases where fluorescent enhancement was recorded for a compound instead of inhibition, a secondary gel-based polymerase activity assay was used as a counter-screen as described below, to exclude the possibility of RdRp activity enhancement (Supplementary Fig. S1). Primed elongation activity was examined in a gel-based assay as previously described[16],[63] using the RNA template (PE44-NoV, Fig. 4D). Gels were imaged using BioRad (Hercules, CA, U.SA) Geldoc Universal Hood II, running BioRad Image Lab software, V4.1, build 16. Antagonism was calculated using Compusyn software V1.0[59]. 54 and PPNDS (4:1 ratio) were tested alone and together against norovirus Sydney 2012 RdRp.

norovirus RdRp = test: Counter-screen gel-shift RdRp assay (primed elongation of PE44-NoV template); assay type: biochemical, human norovirus; conditions: for RdRp activity enhancement in gel-based counter-screen: 100 µM; for inhibition of primed elongation activity (gel-shift): fixed concentration of 100 µM
Protocol: In this assay, a 32 nucleotide RNA template (PE44-NoV) is extended to 44 nucleotides in the presence of an active RdRp[16]. […] Inhibition of primed elongation of the PE44-NoV template was examined at a fixed concentration of 100 µM (Fig. 4D). In the absence of inhibition (0.5% DMSO vehicle only) the RNA template was extended to 44 nucleotides (Fig. 4D), evidenced by an upward gel shift and the appearance of the second, higher band.
as §1

[2] = Observed compound solubility; assay type: physicochemical; conditions: assay conditions / 100% DMSO
Protocol: Therefore, they were counter-screened at 100 µM in a secondary gel-based assay (Supplementary Fig. S1).
To confirm RdRp inhibition and to exclude any potential false positives from the first fluorescence RdRp assay, the eight selected compounds (Fig. 4C) were then assessed using a gel-shift enzyme activity assay.
Dose-dependent inhibitory response curves were used to establish IC50 values for the five test compounds (Table 2). […] Therefore, 42b was too insoluble to attain a reliable confidence interval in the dose-response experiments and was not examined further. However, from the other four compounds, hit 11 and its phenyl derivative 54 gave the lowest IC50 values, 3–5 fold improved compared with 13 and its derivative 42a, confirming increased RdRp inhibitory activity associated with this scaffold.

MNV = MNV plaque reduction assay in cell culture; assay type: cell-based, murine norovirus; conditions: 100 µM; read-out: inhibition of MNV plaque formation
Protocol: As mentioned above, the only robust cellular assay available for the evaluation of potential norovirus inhibitors is the closely related MNV assay. […] Consequently, 54 was further assessed to determine the IC50 value against MNV RdRp activity using an in vitro fluorescent assay. […] 54 was then assessed for cytotoxicity against RAW264.7 mouse macrophage cells using a cell viability assay. […] Using the plaque reduction assay, the inhibitory effects of 54 (0.5–50 µM) were examined against MNV plaque formation in cell culture. […] Compound solubility and its cell-membrane permeability properties could be further improved with structure-activity relationship enhancement of the 54 scaffold to facilitate cellular uptake, and therefore to increase antiviral efficacy. Work on this aspect is ongoing, and it will be reported in due course.
MNV-1 (CW1) culture assays were performed as previously described. Replication was examined using plaque assays[58],[64],[65]. Cytotoxicity was examined using a CellTitre Blue (Promega, Madison, WI, USA) viability assay as described previously.

[3] = read-out: inhibition of human norovirus RdRp activity, 10 µM, initial screen of purchased compounds
[4] = initial screen of purchased compounds
[5] = read-out: inhibition of norovirus Sydney 2012 RdRp activity, 10 µM, secondary screen of newly synthesised compounds
[6] = 10 µM, secondary screen of newly synthesised compounds
[7] = 100 µM, initial screen of purchased compounds

O=C(C1=C(O)C(=O)N(Cc2ccco2)C1c1cccc(O)c1)c1ccc2c(c1)OCCO2 (centres unmarked) [Compound 8]
inhibition at 10 µM [1, 3]: > 25%
inhibition at 100 µM [1, 4]: > 25%

COC(=O)c1ccc(-c2ccc(/C=C3\SC(=O)N(CC(=O)N4CCCCC4)C3=O)o2)c(C)c1 [Compound 24d]
inhibition at 10 µM [1, 5]: 25%

O=C1NC(=O)/C(=C/c2ccc(-c3ccccc3)o2)S1 [Compound 18a]
inhibition of norovirus Sydney 2012 RdRp activity [1, 6]: lacked RdRp inhibitory activity

O=C(Nc1ccc(O)c(-c2nc3ccccc3o2)c1)c1cccnc1 [AP-970/12851847]
inhibition of human norovirus RdRp activity [1, 7]: apparent RdRp enhancement
RdRp activity enhancement in gel-based counter-screen (norovirus RdRp): not seen in the gel-based assay
solubility (observation) [2]: insolubility

C/C(=N\NC(=O)c1ccccc1O)c1ccc(O)cc1O [Compound 12]
inhibition at 10 µM [1, 3]: > 25%
inhibition at 100 µM [1, 4]: > 25%

O=C(CN1C(=O)S/C(=C\c2ccc(-c3ccccc3)o2)C1=O)N1CCCCC1 [Compound 24a]
inhibition of norovirus Sydney 2012 RdRp activity [1, 6]: loss of inhibitory activity

COC(=O)c1ccc(-c2ccc(/C=C3\SC(=O)N(CC(=O)N4CCOCC4)C3=O)o2)c(C)c1 [Compound 39d]
inhibition of norovirus Sydney 2012 RdRp activity [1, 6]: complete loss of activity

Cc1ccccc1-c1ccc(/C=C2\SC(=O)N(CC(=O)N3CCOCC3)C2=O)o1 [Compound 23c]
inhibition of norovirus Sydney 2012 RdRp activity [1, 6]: complete loss of activity

O=C(O)c1ccc2nc(-c3cccc(-c4nc5ccc(C(=O)O)cc5[nH]4)c3)[nH]c2c1 [AJ-077/33270018]
inhibition of human norovirus RdRp activity [1, 7]: apparent RdRp enhancement
RdRp activity enhancement in gel-based counter-screen (norovirus RdRp): not seen in the gel-based assay
solubility (observation) [2]: insolubility

Cc1cc(C(=O)O)ccc1-c1ccc(/C=C2\SC(=O)N(CC(=O)N3CCOCC3)C2=O)o1 [Compound 13]
pIC50 [1]: 4.82
inhibition at 10 µM [1, 3]: > 25%
inhibition at 100 µM [1, 4]: > 50%
inhibition at 10 µM [1, 5]: 25%
inhibition of primed elongation activity (gel-shift) (norovirus RdRp): complete inhibition
inhibition at 100 µM (MNV): 21%

COc1cccc(NC(=O)Cn2nc(C(F)(F)F)cc2C2CC2)c1 [AK-968/41925073]
inhibition of human norovirus RdRp activity ([1]; 10 µM, initial screen of purchased compounds): over 25%
inhibition of human norovirus RdRp activity [1, 7]: over 25%
solubility (observation) [2]: precipitated heavily in 100% DMSO

O=C(O)c1ccc(-c2ccc(/C=C3\SC(=O)N(CC(=O)N4CCOCC4)C3=O)o2)cc1 [Compound 28]
inhibition at 10 µM [1, 5]: ~50%

COC(=O)c1ccc(-c2ccc(/C=C3\SC(=O)N(CC(=O)Nc4ccccc4)C3=O)o2)cc1 [Compound 42b]
inhibition at 10 µM [1, 5]: > 50%
inhibition of primed elongation activity (gel-shift) (norovirus RdRp): near complete abolishment of norovirus RdRp activity
solubility (observation) [2]: significant solubility issues

Cc1ccccc1-c1ccc(/C=C2\SC(=O)NC2=O)o1 [Compound 18c]
inhibition of norovirus Sydney 2012 RdRp activity [1, 6]: lacked RdRp inhibitory activity
